Counter-ions that a name gives are not always drawn.

human MAT2A enzyme, sequence (P31153 whole entry): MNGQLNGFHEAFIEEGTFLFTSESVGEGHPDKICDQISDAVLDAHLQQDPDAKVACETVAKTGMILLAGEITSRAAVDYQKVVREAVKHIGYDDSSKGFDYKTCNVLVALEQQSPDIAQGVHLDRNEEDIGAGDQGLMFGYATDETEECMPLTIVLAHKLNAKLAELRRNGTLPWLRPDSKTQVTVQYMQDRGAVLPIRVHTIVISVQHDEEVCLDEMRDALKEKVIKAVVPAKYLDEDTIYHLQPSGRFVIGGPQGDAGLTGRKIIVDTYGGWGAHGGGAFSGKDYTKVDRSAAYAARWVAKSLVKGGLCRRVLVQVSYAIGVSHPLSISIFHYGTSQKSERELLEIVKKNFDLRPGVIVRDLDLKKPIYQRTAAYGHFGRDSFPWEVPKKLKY

This assay has as its target human MAT2A enzyme (Homo sapiens (Human), UniProt P31153). The assay can be described thus: In vitro enzymatic inhibition activity assay on MAT2A (PiColorLock phosphate detection). Conditions: purified human MAT2A 10 nM, ATP 50 μM, L-methionine 100 μM, 6 h at 23° C.; read-out: MAT2A inhibitory activity IC50. In kind it is biochemical. As for the experimental part:
Enzymatic activity assays of compounds of this patent against MAT2A (to detect half inhibitory concentration IC50 values of the compounds) were performed using the phosphate detection kit PiColorLockTM (ab270004, purchased from Abcam). This method utilized the principle that purified human MAT2A enzyme catalyzes the formation of S-adenosylmethionine (SAM) from L-methionine and ATP to release free phosphate, and used the spectrophotometric method to quantify phosphate, so as to determine the enzymatic activity of MAT2A. Compounds were diluted in a 10-fold gradient starting at 1 mM with 100% DMSO (for a total of 8 concentrations) and 2 μL of each concentration was added to 48 μL of reaction buffer (50 mM Tris-HCl PH 7.5, 50 mM KCl, 10 mM MgCl2, 0.01% Brij-35, 0.01% BSA, 1 mM DTT) and mixed well. The final diluted compound was prepared, and 5 μL of MAT2A enzyme (final concentration of 10 nM), 5 μL of ATP (final concentration of 50 μM), and 5 μL of L-methionine (final concentration of 100 μM) were added to each well of a 384-well plate (#3701, purchased from CORNING). After the 384-well plate was placed in the incubator at 23° C. for 6 h, 5 μL of PiColorLock reagent diluted Accelerator (dilution ratio 1:100) was added to each well, and the reaction was stopped by incubating in the incubator at 23° C. for 5 min. 2 μL of Stabiliser was added, the absorbance was read at 630 nm on BMG CLARIOstar, and the IC50 value of the compound was calculated by using GraphPad Prism software.
Under the conditions of this experiment, the inhibition of MAT2A by test compounds can be expressed as an IC50 value for the inhibition of the level of phosphate production during the enzymatic reaction.
In general, IC50 refers to the point on the concentration scale where inhibition reaches its midpoint. As for `COC(=O)c1c(N)c2ccc(Br)nc2n(-c2ccc(N)cc2)c1=O` [Example 263, methyl 4-amino-1-(4-aminophenyl)-7-bromo-2-oxo-1,2-dihydro-1,8-naphthyridine-3-carboxylate], the IC50 was determined as 1.41 nM.

Turning to `COC(=O)c1c(N)c2ccc(C(F)F)cc2n(-c2ccc(C(C)O)cc2)c1=O` (stereo not shown) [Example 336, methyl 4-amino-7-(difluoromethyl)-1-(4-(1-hydroxyethyl)phenyl)-2-oxo-1,2-dihydroquinoline-3-carboxylate], the IC50 was found to be 1.94 nM.

For `COC(=O)c1c(N)c2ccc(I)cc2n(-c2ccc(C(C)O)nc2)c1=O` (stereo not shown) [Example 307, methyl 4-amino-1-(6-(1-hydroxyethyl)pyridin-3-yl)-2-oxo-7-iodo-1,2-dihydroquinoline-3-carboxylate], the IC50 came out at 1.14 nM.

With `COC(=O)c1c(N)c2ccc(C(F)(F)F)cc2n(-c2ccc3ccccc3c2)c1=O` [Example 26, methyl 4-amino-1-(naphthalen-2-yl)-2-oxo-7-(trifluoromethyl)-1,2-dihydro quinoline-3-carboxylate], the IC50 worked out at 1.04 nM.

With `[2H]C([2H])([2H])OC(=O)c1c(N)c2ccc(OC(F)(F)F)cc2n(-c2ccc([C@@H](C)O)cc2)c1=O` [Example 393, methyl-d3 4-amino-1-(4-((1R)-1-hydroxyethyl)phenyl)-2-oxo-7-(trifluoromethoxy)-1,2-dihydroquinoline-3-carboxylate], the IC50 is 1.52 nM.

Consider `COC(=O)c1c(N)c2ccc(C(F)F)cc2n(-c2ccc(N)cc2)c1=O` [Example 327, methyl 4-amino-1-(4-aminophenyl)-2-oxo-7-(difluoromethyl)-1,2-dihydro quinoline-3-carboxylate], for which the IC50 amounted to 1.25 nM.

For `COC(=O)c1c(N)c2ccc(C(F)(F)F)cc2n(-c2ccc(C=O)cc2)c1=O` [Example 164, methyl 4-amino-1-(4-formylphenyl)-2-oxo-7-(trifluoromethyl)-1,2-dihydroquinoline-3-carboxylate], the IC50 was 7.58 nM.

In the case of `COC(=O)c1c(N)c2ccc(C3CC3)cc2n(-c2ccc(Cl)cc2)c1=O` [Example 134, methyl 4-amino-1-(4-chlorophenyl)-7-cyclopropyl-2-oxo-1,2-dihydro quinoline-3-carboxylate], the IC50 amounted to 2.01 nM.

Turning to `COC(=O)c1c(N)c2ccc(C(F)(F)F)cc2n(-c2ccc3c(c2)C(O)CC3)c1=O` (stereo not shown) [Example 137, methyl 4-amino-1-(3-hydroxy-2,3-dihydro-1H-inden-5-yl)-2-oxo-7-(trifluoromethyl)-1,2-dihydroquinoline-3-carboxylate], the IC50 was 3.34 nM.

For `Nc1c(C(=O)OC2CC2)c(=O)n(-c2ccccc2)c2cc(Cl)ccc12` [Example 49, cyclopropyl 4-amino-7-chloro-2-oxo-1-phenyl-1,2-dihydroquinolin-3-carboxylate], the IC50 is 8.58 nM.

Consider `COC(=O)c1c(N)c2ccc(C(F)(F)F)nc2n(-c2cnc(Cl)cc2C)c1=O` [Example 204, methyl 4-amino-1-(6-chloro-4-methylpyridin-3-yl)-2-oxo-7-(trifluoromethyl)-1,2-dihydro-1,8-naphthyridine-3-carboxylate], for which the concentration for half-maximal inhibition (IC50) came to 4.62 nM.

For the compound `[2H]C([2H])([2H])OC(=O)c1c(N)c2ccc(Br)cc2n(-c2ccc(C(C)O)cc2)c1=O` (stereo not shown) [Example 311, methyl-d3 4-amino-7-bromo-1-(4-(1-hydroxyethyl)phenyl)-2-oxo-1,2-dihydroquinoline-3-carboxylate], the IC50 came out at 0.6 nM.

As for `COC(=O)c1c(N)c2ccc(Br)nc2n(-c2ccc(Cl)c3cnccc23)c1=O` [Example 289, methyl 4-amino-1-(8-chloroisoquinolin-5-yl)-7-bromo-2-oxo-1,2-dihydro-1,8-naphthyridine-3-carboxylate], the IC50 was 1.04 nM.

Regarding `COC(=O)c1c(N)c2ccc(C(F)(F)F)cc2n(-c2ccc(OC(F)F)cc2)c1=O` [Example 63, methyl 4-amino-1-(4-(difluoromethoxy)phenyl)-2-oxo-7-(trifluoromethyl)-1,2-dihydroquinoline-3-carboxylate], the IC50 turned out to be 1.58 nM.

Consider `COC(=O)c1c(N)c2ccc(C(F)(F)F)cc2n(-c2cccc3ccncc23)c1=O` [Example 192, methyl 4-amino-1-(isoquinolin-8-yl)-2-oxo-7-(trifluoromethyl)-1,2-dihydro quinoline-3-carboxylate], for which the IC50 was 6.47 nM.

As for `CNc1ccc(-n2c(=O)c(C(=O)OC)c(N)c3ccc(C(F)(F)F)cc32)cc1` [Example 115, methyl 4-amino-1-(4-(methylamino)phenyl)-2-oxo-7-(trifluoromethyl)-1,2-dihydroquinoline-3-carboxylate hydrochloride], the IC50 amounted to 2.89 nM.

With `COC(=O)c1c(N)c2ccc(Br)cc2n(-c2cccc3c2COC3)c1=O` [Example 222, methyl 4-amino-7-bromo-1-(1,3-dihydro-2-benzofuran-4-yl)-2-oxo-1,2-dihydroquinoline-3-carboxylate], the IC50 was determined as 8.38 nM.

Take `COC(=O)c1c(N)c2ccc(C(F)(F)F)cc2n(-c2ccc3sccc3c2)c1=O` [Example 153, methyl 4-amino-1-(benzo[b]thiophen-5-yl)-2-oxo-7-(trifluoromethyl)-1,2-dihydroquinoline-3-carboxylate]: the IC50 came out at 2.62 nM.

`COC(=O)c1c(N)c2ccc(C(F)(F)F)cc2n(-c2ccc3ocnc3c2)c1=O` [Example 128, methyl 4-amino-1-(benzo(2,1-d)(1,3)oxazol-5-yl)-2-oxo-7-(trifluoromethyl)-1,2-dihydroquinoline-3-carboxylate]: the IC50 came out at 3.49 nM.

For the compound `COC(=O)c1c(N)c2ccc(C(F)(F)F)nc2n(-c2ccccc2)c1=O` [Example 150, methyl 4-amino-2-oxo-1-phenyl-7-(trifluoromethyl)-1,2-dihydro-1,8-naphthyridine-3-carboxylate], the half-maximal inhibitory concentration (IC50) was found to be 1.66 nM.

Take `COC(=O)c1c(N)c2ccc(Br)nc2n(-c2ccc(Cl)nc2)c1=O` [Example 297, methyl 4-amino-7-bromo-1-(6-chloropyridin-3-yl)-2-oxo-1,2-dihydro-1,8-naphthyridine-3-carboxylate]: the IC50 came out at 2.04 nM.

Regarding `COC(=O)c1c(N)c2ccc(OC(C)C)nc2n(-c2ccc(Cl)cc2)c1=O` [Example 388, methyl 4-amino-1-(4-chlorophenyl)-7-isopropoxy-2-oxo-1,2-dihydro-1,8-naphthyridine-3-carboxylate], the IC50 was determined as 1.55 nM.

Take `COC(=O)c1c(N)c2ccc(I)cc2n(-c2ccccc2)c1=O` [Example 16, methyl 4-amino-7-iodo-2-oxo-1-phenyl-1,2-dihydroquinoline-3—carboxylate]: the IC50 stood at 1.23 nM.

Take `COC(=O)c1c(N)c2ccc(C(F)(F)F)nc2n(-c2cccc3c(Cl)nccc23)c1=O` [Example 318, methyl 4-amino-1-(1-chloroisoquinolin-5-yl)-2-oxo-7-(trifluoromethyl)-1,2-dihydro-1,8-naphthyridine-3-carboxylate]: the IC50 turned out to be 2.34 nM.

Regarding `COC(=O)c1c(N)c2ccc(C(F)(F)F)cc2n(-c2ccc(I)cc2)c1=O` [Example 125, methyl 4-amino-1-(4-iodophenyl)-2-oxo-7-(trifluoromethyl)-1,2-dihydroquinoline-3-carboxylate], the IC50 was 2.67 nM.

As to `COC(=O)c1c(N)c2ccc(Br)cc2n(-c2ccc(OC)cc2)c1=O` [Example 87, methyl 4-amino-7-bromo-1-(4-methoxyphenyl)-2-oxo-1,2-dihydroquinoline-3-carboxylate], the IC50 came to 1.86 nM.

As for `CCc1ccc(-n2c(=O)c(C(=O)OC)c(N)c3ccc(C(F)(F)F)cc32)cc1` [Example 155, methyl 4-amino-1-(4-ethylphenyl)-2-oxo-7-(trifluoromethyl)-1,2-dihydroquinoline-3-carboxylate], the IC50 came to 1.93 nM.

On to `COC(=O)c1c(N)c2ccc(Br)cc2n(-c2ccc3ncoc3c2)c1=O` [Example 268, methyl 4-amino-1-(benzo[d]oxazol-6-yl)-7-bromo-2-oxo-1,2-dihydroquinoline-3-carboxylate], for which the IC50 turned out to be 3.39 nM.

As for `COC(=O)c1c(N)c2ccc(Br)cc2n(-c2ccc(C(C)O)nc2)c1=O` (stereo not shown) [Example 291, methyl 4-amino-1-(6-(1-hydroxyethyl)pyridin-3-yl)-2-oxo-7-bromo-1,2-dihydroquinoline-3-carboxylate], the IC50 is 2.18 nM.

For `COC(=O)c1c(N)c2c(F)cc(Br)cc2n(-c2ccc(N)cc2)c1=O` [Example 339, methyl 4-amino-1-(4-aminophenyl)-7-bromo-5-fluoro-2-oxo-1,2-dihydroquinoline-3-carboxylate], the IC50 worked out at 2.3 nM.

Take `[2H]C([2H])([2H])OC(=O)c1c(N)c2ccc(Br)cc2n(-c2ccc([C@@H](C)O)cc2)c1=O` [Example 351, methyl-d3 (R)-4-amino-7-bromo-1-(4-(1-hydroxyethyl)phenyl)-2-oxo-1,2-dihydroquinolin-3-carboxylate]: the IC50 stood at 1.05 nM.

For the origin of these results see patent publication US20250221979A1, “NOVEL HETEROCYCLIC COMPOUND” (SHOUYAO HOLDINGS (BEIJING) CO., LTD., priority 2022, published 2025).
